Here are results for two compounds from ChEMBL document CHEMBL3751819, “Navigating into the chemical space between MGCD0103 and SAHA: novel histone deacetylase inhibitors as a promising lead” (Medchemcomm, 2015).

Molecules are shown by their SMILES. Calls of active or inactive are those of the source. No cut-off for these calls is given here.

Data set [1] relates to HeLa. Put plainly: Induction of apoptosis in human HeLa cells assessed as viable cells at 2.5 uM after 48 hrs by annexin-V-FITC/propidium iodide staining based flow cytometry (reference value: 88.6%). The data set is classed as functional.
For data set [2], the system named is HeLa. Put plainly: Induction of apoptosis in human HeLa cells assessed as viable cells at 1.25 uM after 48 hrs by annexin-V-FITC/propidium iodide staining based flow cytometry (reference value: 88.6%). It is filed as functional. On the technique in general: Flow cytometry measures light scatter and fluorescence of single cells or particles in a stream.
For data set [3], the system named is HeLa. Put plainly: Induction of apoptosis in human HeLa cells assessed as necrotic cells at 1.25 uM after 48 hrs by annexin-V-FITC/propidium iodide staining based flow cytometry (reference value: 0.693%). It is filed as functional.
For data set [4], the system named is HeLa. The data set is described as follows: Induction of apoptosis in human HeLa cells assessed as early apoptotic cells at 2.5 uM after 48 hrs by annexin-V-FITC/propidium iodide staining based flow cytometry (reference value: 1.4%). It is filed as functional.
The subject of data set [5] is HeLa. Put plainly: Induction of apoptosis in human HeLa cells assessed as necrotic cells at 2.5 uM after 48 hrs by annexin-V-FITC/propidium iodide staining based flow cytometry (reference value: 0.693%). The data set is classed as functional.
A short description of data set [6]: Half life in mouse microsomes. It is filed as ADME, Microsome.
Data set [7] deals with HeLa. The data set is described as follows: Induction of apoptosis in human HeLa cells assessed as late apoptotic cells at 5 uM after 48 hrs by annexin-V-FITC/propidium iodide staining based flow cytometry (reference value: 9.3%). It is filed as functional.
Data set [8] relates to HeLa. Put plainly: Induction of apoptosis in human HeLa cells assessed as early apoptotic cells at 5 uM after 48 hrs by annexin-V-FITC/propidium iodide staining based flow cytometry (reference value: 1.4%). It is filed as functional.
A short description of data set [9]: Half life in mouse plasma. It is filed as ADME, cell-free.
Data set [10] has as its system HeLa. Put plainly: Induction of apoptosis in human HeLa cells assessed as necrotic cells at 5 uM after 48 hrs by annexin-V-FITC/propidium iodide staining based flow cytometry (reference value: 0.693%). It is filed as functional.
Data set [11] deals with HeLa. The data set is described as follows: Induction of apoptosis in human HeLa cells assessed as late apoptotic cells at 2.5 uM after 48 hrs by annexin-V-FITC/propidium iodide staining based flow cytometry (reference value: 9.3%). The data set is classed as functional.
A short description of data set [12]: Half life in artificial intestinal fluid. It is filed as ADME.
Data set [13] deals with HeLa. The data set is described as follows: Induction of apoptosis in human HeLa cells assessed as viable cells at 5 uM after 48 hrs by annexin-V-FITC/propidium iodide staining based flow cytometry (reference value: 88.6%). The data set is classed as functional.
Data set [14] concerns HeLa. The data set is described as follows: Induction of apoptosis in human HeLa cells assessed as late apoptotic cells at 1.25 uM after 48 hrs by annexin-V-FITC/propidium iodide staining based flow cytometry (reference value: 9.3%). The data set is classed as functional.
Data set [15] deals with HeLa. Put plainly: Induction of apoptosis in human HeLa cells assessed as early apoptotic cells at 1.25 uM after 48 hrs by annexin-V-FITC/propidium iodide staining based flow cytometry (reference value: 1.4%). It is filed as functional.
Data set [16] concerns MCF7. Put plainly: Antiproliferative activity against human MCF7 cells assessed as reduction in cell viability after 24 hrs by MTT assay. The data set is classed as functional, cell-based. The note with it: MCF7, 24 h. A general note: Tetrazolium dyes change colour on reduction, which living cells bring about.
Data set [17] relates to HepG2. Put plainly: Antiproliferative activity against human HepG2 cells assessed as reduction in cell viability after 24 hrs by MTT assay. It is filed as functional, cell-based. The following applies: HepG2, 24 h.
A short description of data set [18]: Antiproliferative activity against human HCT116 cells assessed as reduction in cell viability after 24 hrs by MTT assay. The following applies: HCT-116, 24 h. The data set is classed as functional, cell-based.
The subject of data set [19] is HeLa. Put plainly: Antiproliferative activity against human HeLa cells assessed as reduction in cell viability after 24 hrs by MTT assay. The data set is classed as functional, cell-based.
The subject of data set [20] is A549. The data set is described as follows: Antiproliferative activity against human A549 cells assessed as reduction in cell viability after 48 hrs by MTT assay. The following applies: A549, 48 h. The data set is classed as functional, cell-based.
In data set [21] the test system is HepG2. Put plainly: Antiproliferative activity against human HepG2 cells assessed as reduction in cell viability after 72 hrs by MTT assay. It is filed as functional, cell-based. The following applies: HepG2, 72 h.
Data set [22] has as its system MCF7. Put plainly: Antiproliferative activity against human MCF7 cells assessed as reduction in cell viability after 48 hrs by MTT assay. It is filed as functional, cell-based. The following applies: MCF7, 48 h.
A short description of data set [23]: Elimination half life in po dosed patient plasma by HPLC/MS analysis. The data set is classed as ADME, organism-based. The note with it: human, read-out: beta t1/2 (converted).
The subject of data set [24] is MCF7. The data set is described as follows: Antiproliferative activity against human MCF7 cells assessed as reduction in cell viability after 72 hrs by MTT assay. The note with it: MCF7, 72 h. The data set is classed as functional, cell-based.
The nature of data set [25]: Antiproliferative activity against human HCT116 cells assessed as reduction in cell viability after 48 hrs by MTT assay. It is filed as functional, cell-based. The note with it: HCT-116, 48 h.
Data set [26] has as its system HeLa. Put plainly: Antiproliferative activity against human HeLa cells assessed as reduction in cell viability after 48 hrs by MTT assay. The data set is classed as functional, cell-based.
Data set [27] deals with A549. Put plainly: Antiproliferative activity against human A549 cells assessed as reduction in cell viability after 24 hrs by MTT assay. The following applies: A549, 24 h. It is filed as functional, cell-based.
For data set [28], the system named is HepG2. The data set is described as follows: Antiproliferative activity against human HepG2 cells assessed as reduction in cell viability after 48 hrs by MTT assay. The following applies: HepG2, 48 h. The data set is classed as functional, cell-based.
Data set [29] can be described thus: Antiproliferative activity against human HCT116 cells assessed as reduction in cell viability after 72 hrs by MTT assay. The following applies: HCT-116, 72 h. The data set is classed as functional, cell-based.
Data set [30] in a line: Half life in artificial gastric fluid. The data set is classed as ADME.
The target of data set [31] is T1, Protein deacetylase HDAC6 (Homo sapiens) (UniProt Q9UBN7).
T1 sequence (whole entry): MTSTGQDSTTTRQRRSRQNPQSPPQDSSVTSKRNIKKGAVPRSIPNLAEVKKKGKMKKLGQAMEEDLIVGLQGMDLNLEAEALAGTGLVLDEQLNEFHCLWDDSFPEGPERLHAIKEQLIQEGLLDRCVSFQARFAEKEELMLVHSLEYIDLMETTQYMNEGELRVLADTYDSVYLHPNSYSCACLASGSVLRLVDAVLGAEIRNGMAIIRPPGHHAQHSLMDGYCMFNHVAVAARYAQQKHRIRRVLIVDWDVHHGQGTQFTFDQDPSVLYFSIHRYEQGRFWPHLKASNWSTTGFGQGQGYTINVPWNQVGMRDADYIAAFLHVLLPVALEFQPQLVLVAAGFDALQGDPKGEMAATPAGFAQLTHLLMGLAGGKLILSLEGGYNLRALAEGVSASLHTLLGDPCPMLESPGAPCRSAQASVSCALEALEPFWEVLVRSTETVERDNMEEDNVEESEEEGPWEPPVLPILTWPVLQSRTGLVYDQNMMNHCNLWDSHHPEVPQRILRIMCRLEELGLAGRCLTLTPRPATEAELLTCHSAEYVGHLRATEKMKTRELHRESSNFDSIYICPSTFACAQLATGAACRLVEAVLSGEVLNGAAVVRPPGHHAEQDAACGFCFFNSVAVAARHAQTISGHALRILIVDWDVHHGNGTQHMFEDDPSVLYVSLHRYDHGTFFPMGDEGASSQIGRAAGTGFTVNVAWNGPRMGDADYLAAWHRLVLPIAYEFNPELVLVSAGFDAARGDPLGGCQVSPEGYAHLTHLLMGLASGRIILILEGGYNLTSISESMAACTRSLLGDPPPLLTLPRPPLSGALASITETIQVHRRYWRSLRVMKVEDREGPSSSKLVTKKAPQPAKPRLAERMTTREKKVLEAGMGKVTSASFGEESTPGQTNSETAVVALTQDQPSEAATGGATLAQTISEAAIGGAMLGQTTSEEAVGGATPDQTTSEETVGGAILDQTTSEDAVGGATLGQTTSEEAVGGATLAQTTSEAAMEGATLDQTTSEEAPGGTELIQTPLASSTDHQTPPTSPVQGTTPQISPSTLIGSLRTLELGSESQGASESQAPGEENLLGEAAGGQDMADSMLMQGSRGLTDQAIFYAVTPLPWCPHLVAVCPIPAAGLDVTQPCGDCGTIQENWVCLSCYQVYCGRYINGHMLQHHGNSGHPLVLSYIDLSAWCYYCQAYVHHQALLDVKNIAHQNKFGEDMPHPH
The data set is described as follows: Inhibition of HDAC6 in human A549 cells assessed as increase in acetylated tubulin expression at 5 uM incubated for 12 hrs by DAPI staining based immunofluorescence microscopy. The data set is classed as cell-based.

For data set [32], the system named is A549. Put plainly: Antiproliferative activity against human A549 cells assessed as reduction in cell viability after 72 hrs by MTT assay. It is filed as functional, cell-based. The following applies: A549, 72 h.
Data set [33] deals with HeLa. Put plainly: Antiproliferative activity against human HeLa cells assessed as reduction in cell viability after 72 hrs by MTT assay. It is filed as functional, cell-based.
The mark [34] stands for this setting: Homo sapiens, HeLa, 48 h, read-out: Activity.

Take `O=C(CCCCCCC(=O)Nc1ccccc1)NO` [VORINOSTAT]: the Activity came to 77.4% in [1]; 85.1% in [2]; 0.654% in data set [3]; 6.56% in data set [4]; 0.957% in data set [5]; 7.6% in [7]. The Activity in data set [8] came out at 7.84%; in data set [10], 0.61%; in data set [11] it was 15.1%; in data set [13] it was 83.9%; in data set [14] it was 10.2%; in [15], 4.1%. Also, the half-life in [6] is 1.33 h; in data set [9], 3 h; in [12] it was greater than 24 h.
A word on the IC50: it is the concentration that gives 50% inhibition. Turning to `Nc1ccccc1NC(=O)c1ccc(CNc2nccc(-c3cccnc3)n2)cc1` [MOCETINOSTAT], the viability at 2.5 µM in data set [1] (setting [34]) was found to be 84.5%. In addition, the viability at 1.25 µM in [2] (setting [34]) was 87.1%. Besides, the Activity was 0.78% in data set [3]; 9.13% in data set [4]; 0.437% in data set [5]; 11.6% in [7]; 12.5% in data set [8]; 1.33% in data set [10]. Moreover, the Activity in [11] is 5.98%; in data set [14], 8.23%; in [15] it was 3.9%. Also, the IC50 in data set [16] turned out to be 84.2 µM; in data set [17], 5.79 µM; in [18], 29.7 µM; in data set [19], 43.8 µM; in data set [20] it was 14.6 µM; in data set [21], 4.25 µM. In addition, the IC50 in data set [22] worked out at 56.8 µM; in [24], 2.49 µM; in data set [25] it was 1.24 µM; in data set [26], 3.32 µM; in [27], 59.9 µM; in data set [28], 4.05 µM. The IC50 stood at 3.51 µM in [29], 11.9 µM in [32] and 3.42 µM in [33]. Besides, the half-life in [6] is 2.62 h; in [23], 9 h; in [9], 10 h; in [30] it was greater than 24 h; in data set [12], greater than 24 h. Moreover, the viability at 5 µM in data set [13] (setting [34]) was 74.6%. In data set [31], the inhibition entry is “inactive”.
